Measurements as given in PMC8116058, “De novo macrocyclic peptides dissect energy coupling of a heterodimeric ABC transporter by multimode allosteric inhibition” (eLife, 2021).
Positions of bridges follow the written chain, without caps; N, C: chain ends. Non-standard residues stand in square brackets, D forms with d. Residues, ends and D or L forms follow the SMILES beside them. *: point of attachment. 5FAM = O=C1OC2(c3ccc(O)cc3Oc3cc(O)ccc32)c2ccc(C(=O)*)cc21; βAla = NCCC(=O)O

Columns and labels:
TmrAB in liposomes = experiment: Filter-based transport assay, inhibition of C4F translocation; format: biochemical, Thermus thermophilus; conditions: C4F 3 µM, CP^F 1 µM, 15 min 45°C; for Transported C4F peptide: TmrAB 0.4 µM
Description: In order to investigate the functional impact of CPs, we examined the effect of the CPs on ATP hydrolysis and substrate transport of TmrAB (Figure 3A). We reconstituted TmrAB in liposomes and first assayed the ATPase activity. […] We next set out to investigate peptide transport by TmrAB using a filter-based transport assay. To investigate whether CPs are recognized as substrates by TmrAB, we added fluorescein-labeled CP^Fs and examined ATP-dependent translocation. In contrast to the linear substrate peptide C4F, none of the CP^Fs were transported by TmrAB (Figure 3C). Next, we examined ATP-dependent transport of C4F peptides in the presence and absence of the different CPs.
Figure 3. CP^Fs are potent inhibitors of ATP turnover and substrate transport. (A) Experimental scheme of ATP hydrolysis and peptide transport by TmrAB. (B) CP^Fs inhibit ATP hydrolysis. TmrAB in liposomes (100 nM) was incubated with ATP (2 mM, traced with [γ^32P]-ATP), and MgCl2 (5 mM) in the presence and absence of CP^Fs (1 µM) for 10 min at 45°C. Autohydrolysis was determined in the absence of TmrAB, and background turnover was conducted in the presence of EDTA (10 mM). Release of [γ^32P] was quantified by thin layer chromatography. (C) CP^Fs are not transported by TmrAB. TmrAB (0.4 µM) reconstituted in liposomes was incubated with C4F peptide (3 µM) or CP^Fs (1 µM) in the presence of ATP/ADP (3 mM) and MgCl2 (5 mM) for 5 min at 45°C. Since CP^Fs were dissolved in maximal 0.5% (v/v) of DMSO, C4F plus 0.5% DMSO served as control. Proteoliposomes were washed on filter plates, and transported peptides were quantified at λex/em = 485/520 nm. (D) Inhibition of substrate translocation. TmrAB in liposomes (0.4 µM) were incubated with C4F peptide (3 µM), ATP/ADP (3 mM), and MgCl2 (5 mM) in the presence and absence of CP^Fs (1 µM) for 15 min at 45°C. Transported peptides were quantified as described in (C). In (B–C), mean values ± SD (n = 3) are shown. Figure 3—source data 1. Source data for Figure 3.
TmrAB in liposomes (0.4 µM) were incubated with ATP/ADP (3 mM), MgCl2 (5 mM), C4F peptide (3 µM), and CP^Fs (1 µM) for 15 min at 45°C. […] Proteoliposomes were solubilized by adding SDS (1% [v/v]) in transport buffer for 10 min at 20°C. Transported peptides were quantified at λex/em = 485/520 nm using a microplate reader (CLARIOstar, BMG LABTECH).

wild-type TmrAB = experiment: Nucleotide occlusion, wild-type TmrAB; format: biochemical, Thermus thermophilus; conditions: 5 min 45°C; for Effect on nucleotide occlusion, wild-type TmrAB: CP^F 4 µM; for Occluded nucleotides, ADP / Occluded nucleotides, ATP: TmrAB 2 µM, CP^F 4 µM or orthovanadate 1 mM, ATP 1 mM traced with [α32P]-ATP, normalized to vanadate-trapped state
Procedure: Figure 5. […] (A, B) CP6^F (A) or CP13^F (B, 50 nM each) were incubated with increasing concentrations of detergent-solubilized inward-facing TmrAB (in the absence of Mg-ATP) or outward-facing TmrA^EQB, which was trapped with Mg-ATP (1 mM) for 5 min at 45°C as described ([Hofmann et al., 2019]; [Stefan et al., 2020]). Immediately after, the fluorescence anisotropy was assayed at λex/em = 485/520 nm. The difference in fluorescence polarization was normalized to free and fully bound CP^F. Data were fitted by a one-site binding model. […] TmrAB (2 µM each) were mixed with CP^Fs (4 µM), ATP (1 mM, traced with [α^32P]-ATP), and MgCl2 (5 mM) for 5 min at 4°C or 45°C. Cold ATP (10 mM) was added, and freely exchangeable nucleotides were removed by rapid gel filtration. Occluded nucleotides were analyzed by thin layer chromatography and autoradiography. Representative radiograms for independent triplicates are shown. (D) Stably occluded nucleotides, [α^32P]-ATP and [α^32P]-ADP, were quantified by autoradiography. Data were normalized to the vanadate-trapped state. In (A, B, D), mean values ± SD (n = 3) are shown. Figure 5—source data 1. Source Data for Figure 5. Figure 5—figure supplement 1. […] (A) CP^Fs (50 nM each) were incubated with increasing concentrations of detergent-solubilized IF TmrAB in the inward-facing (IF) conformation (absence of Mg-ATP) or TmrA^EQB populated in the outward-facing (OF) conformation, which was trapped in the OF conformation by Mg-ATP (1 mM) after 5 min incubation at 45°C. The difference in fluorescence polarization was normalized to unbound (0%) and 100% bound CP^F. Data were fitted by a one-site binding model. Fluorescence anisotropy was recorded at λex/em = 485/520 nm. […] TmrA^EQB (2 µM) were incubated in the absence and presence of CP^Fs (4 µM each), ATP (1 mM, traced with [α^32P]-ATP), and MgCl2 (5 mM) for 5 min at 4°C or 45°C. Cold ATP (10 mM) was added, and free nucleotides were removed by rapid gel filtration. Occluded nucleotides were analyzed by thin layer chromatography and autoradiography. Representative radiograms for independent triplicates are shown. […] Figure 5—figure supplement 1—source data 1.
We also examined the impact of CP^Fs on the IF-to-OF transition of wild-type TmrAB induced by ATP binding through nucleotide occlusion (stable trapping) as the readout. We induced the IF-to-OF switch with radiotraced [α^32P]-ATP for 5 min at 45°C in the presence and absence of CPs and removed unbound nucleotides by rapid gel filtration. Subsequently, the occluded nucleotides were identified and quantified by thin layer chromatography and autoradiography (Figure 5C, D).
Detergent-solubilized TmrAB (2 µM) were incubated with ATP (1 mM) traced with [α^32P]-ATP (Hartmann Analytic), MgCl2 (5 mM), CP^Fs (4 µM), or orthovanadate (1 mM) for 5 min at 45°C. Cold ATP (10 mM) was added, and unbound nucleotides were removed by rapid gel filtration (Bio-Spin columns P-30, Bio-Rad). ATP (10 mM) was added, and samples were spotted onto polyethyleneimine cellulose plates (Merck Millipore). Thin-layer chromatography was performed using 0.75 M KH2PO4 pH 3.4.

[1] = ADP 3 mM (background), without CP 0.01

SMILES	Transported C4F peptide (TmrAB in liposomes; [1]) [µmol·g/min]	Transported C4F peptide (TmrAB in liposomes; ATP 3 mM, without CP 1.66) [µmol·g/min]	Effect on ATP-dependent C4F peptide translocation (TmrAB in liposomes)	Effect on nucleotide occlusion, wild-type TmrAB (wild-type TmrAB)	Occluded nucleotides, ADP (wild-type TmrAB) [%]	Occluded nucleotides, ATP (wild-type TmrAB) [%]
CC[C@H](C)[C@@H]1NC(=O)[C@H]([C@@H](C)O)NC(=O)[C@H](CC(C)C)NC(=O)[C@H](Cc2c[nH]c3ccccc23)NC(=O)[C@H](Cc2ccccc2)NC(=O)[C@H](CC(N)=O)NC(=O)[C@H](CCC(=O)O)NC(=O)[C@H](CC(C)C)NC(=O)[C@H](CS)NC(=O)[C@H](Cc2c[nH]cn2)NC(=O)[C@H](CO)NC(=O)[C@@H](Cc2ccc(O)cc2)NC(=O)CSC[C@@H](C(=O)NCC(=O)N[C@@H](CO)C(=O)NCCC(=O)NCCC(=O)N[C@@H](CCCNC(=N)N)C(=O)N[C@@H](CCCCNC(=O)c2ccc3c(c2)C(=O)OC32c3ccc(O)cc3Oc3cc(O)ccc32)C(N)=O)NC(=O)[C@H](CC(C)C)NC1=O [CP6] ({CH2CO}-[dY]SHCLENFWLTILCGS[βAla][βAla]RK(5FAM)-NH2; thioether N-14)	0.37	0.29	completely blocked peptide translocation	nucleotide occlusion was completely abolished	2.66	6.76
CC(C)C[C@@H]1NC(=O)[C@H](Cc2ccccc2)NC(=O)CNC(=O)[C@H](CO)NC(=O)[C@H](Cc2ccccc2)NC(=O)[C@H](CC(=O)O)NC(=O)[C@@H]2CCCN2C(=O)[C@H]([C@@H](C)O)NC(=O)[C@@H](Cc2ccc(O)cc2)NC(=O)CSC[C@@H](C(=O)NCC(=O)N[C@@H](CO)C(=O)NCCC(=O)NCCC(=O)N[C@@H](CCCNC(=N)N)C(=O)N[C@@H](CCCCNC(=O)c2ccc3c(c2)C(=O)OC32c3ccc(O)cc3Oc3cc(O)ccc32)C(N)=O)NC(=O)[C@H](C)NC(=O)[C@H](CC(N)=O)NC(=O)[C@H](CCCNC(=N)N)NC(=O)[C@H](CC(C)C)NC(=O)[C@H](Cc2ccccc2)NC(=O)[C@H](C)NC1=O [CP12] ({CH2CO}-[dY]TPDFSGFLAFLRNACGS[βAla][βAla]RK(5FAM)-NH2; thioether N-16)	0.41	0.41	completely blocked peptide translocation	nucleotide occlusion was completely abolished	3.67	7.52
CC[C@H](C)[C@@H]1NC(=O)[C@H](Cc2c[nH]c3ccccc23)NC(=O)[C@H](CC(N)=O)NC(=O)[C@H](C)NC(=O)[C@H](CO)NC(=O)[C@@H]2CCCN2C(=O)[C@H](CC(=O)O)NC(=O)[C@@H](Cc2ccc(O)cc2)NC(=O)CSC[C@@H](C(=O)NCC(=O)N[C@@H](CO)C(=O)NCCC(=O)NCCC(=O)N[C@@H](CCCNC(=N)N)C(=O)N[C@@H](CCCCNC(=O)c2ccc3c(c2)C(=O)OC32c3ccc(O)cc3Oc3cc(O)ccc32)C(N)=O)NC(=O)[C@H]([C@@H](C)O)NC(=O)[C@H](CC(C)C)NC(=O)[C@H](CC(C)C)NC(=O)[C@H](C(C)C)NC(=O)[C@H](CC(C)C)NC1=O [CP13] ({CH2CO}-[dY]DPSANWILVLLTCGS[βAla][βAla]RK(5FAM)-NH2; thioether N-14; C-terminus assumed)	0.25	0.41	only caused a partial inhibition	promoted stable ATP occlusion	10.47	55.84
CC(C)[C@@H]1NC(=O)[C@H](Cc2ccccc2)NC(=O)[C@@H]2CCCN2C(=O)[C@H](CC(N)=O)NC(=O)[C@H](Cc2c[nH]c3ccccc23)NC(=O)[C@H](C(C)C)NC(=O)[C@H](Cc2ccc(O)cc2)NC(=O)[C@H](Cc2ccccc2)NC(=O)[C@@H](Cc2ccc(O)cc2)NC(=O)CSC[C@@H](C(=O)NCC(=O)N[C@@H](CO)C(=O)NCCC(=O)NCCC(=O)N[C@@H](CCCNC(=N)N)C(=O)N[C@@H](CCCCNC(=O)c2ccc3c(c2)C(=O)OC32c3ccc(O)cc3Oc3cc(O)ccc32)C(N)=O)NC(=O)[C@H](CCCCN)NC(=O)[C@H](Cc2ccccc2)NC1=O [CP14] ({CH2CO}-[dY]FYVWNPFVFKCGS[βAla][βAla]RK(5FAM)-NH2; thioether N-12; C-terminus assumed)	0.15	0.41	only caused a partial inhibition	promoted stable ATP occlusion	8.19	88.51
